Source: patent US9309242B2, “Substituted pyrido[2,3-b]pyrazines as FGFR kinase inhibitors” (priority 2011, dated 2016)

How the values were obtained:
FGFR1 (h) = FGFR1 (h) (Homo sapiens, UniProt P11362); experiment: FGFR1 (enzymatic assay), TR-FRET; format: biochemical; conditions: read-out: FGFR 1 pIC50 (converted)
FGFR2 (h) = FGFR2 (h) (Homo sapiens, UniProt P21802); experiment: FGFR2 (enzymatic assay), TR-FRET; format: biochemical; conditions: enzymatic assay; read-out: FGFR 2 pIC50 (converted)
Procedure, shortened: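 hFGFR2 150 ng/ml; Btn-Flt3 500 nM; ATP 0.4 μM; 50 mM HEPES pH 7.5, 6 mM MnCl2, 1 mM DTT, 0.1 mM Na3VO4, 0.01% Triton-X-100; 1% DMSO final.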

FGFR3 (h) = FGFR3 (h) (Homo sapiens, UniProt P22607); experiment: FGFR3 (enzymatic assay), TR-FRET; format: biochemical; conditions: read-out: FGFR 3 pIC50 (converted)
From the text: Time-Resolved Fluorescence Resonance Energy Transfer (TR-FRET) signal (ex340 nm.

[1] = target: T1, Ba/F3-FGFR1-transfected cells (Homo sapiens, UniProt P11362); experiment: Ba/F3-FGFR1 (minus IL3) cellular proliferation assay, Alamar Blue; format: cell-based
T1 construct: BAF3-FGFR1 (MIN IL3) pIC50; other: minus IL3
Procedure, shortened: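 Viability of transfected Ba/F3-FGFR1 cells (20000 per well, RPMI-1640 with 10% FBS and 2 mM L-glutamine) was scored by resazurin-based Alamar Blue reduction over 4 h, after 24 h treatment with compound at 37 °C under 5% CO2.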

[2] = tested on: Ba/F3-FGFR1-transfected cells; experiment: Ba/F3-FGFR1 (plus IL3) cellular proliferation assay, counterscreen with 10 ng/ml murine IL3; format: cell-based; conditions: plus IL3 (10 ng/ml murine IL3, counterscreen); read-out: BAF3-FGFR1 (PLUS IL3) pIC50 (converted)
Procedure, shortened: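 Proliferation read-out: resazurin-based Alamar Blue fluorescence (540/590 nm) after 4 h, following 24 h compound treatment of 20000 Ba/F3-FGFR1 cells per well in 10% FBS RPMI at 37° C. IL3 counterscreen used the same protocol plus 10 ng/ml murine IL3.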

[3] = target: T2, Ba/F3-FGFR3-transfected cells (Homo sapiens, UniProt P22607); experiment: Ba/F3-FGFR3 (minus IL3) cellular proliferation assay, Alamar Blue; format: cell-based
T2 construct: BAF3-FGFR3 (MIN IL3) pIC50; other: minus IL3
Procedure, shortened: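 With or without 10 ng/ml murine IL3, FGFR3-dependent Ba/F3 cells were treated 24 h with compound, then viability was gauged by Alamar Blue fluorescence after 4 h (ex 540/em 590 nm).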

[4] = target: T3, Ba/F3-KDR-transfected cells (Homo sapiens, UniProt P35968); experiment: Ba/F3-KDR (minus IL3) cellular proliferation assay, Alamar Blue; format: cell-based
T3 construct: BAF3-KDR (MIN IL3) pIC50; other: minus IL3
Procedure, shortened: (§1)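 Compound in DMSO was dispensed first, then transfected cells in serum-containing RPMI-1640 were added. After a 24 h incubation, viability was gauged by resazurin reduction over 4 h, measured as fluorescence.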

[5] = tested on: Ba/F3-KDR-transfected cells; experiment: Ba/F3-KDR (plus IL3) cellular proliferation assay, counterscreen with 10 ng/ml murine IL3; format: cell-based; conditions: plus IL3 (10 ng/ml murine IL3, counterscreen); read-out: BAF3-KDR (PLUS IL3) pIC50 (converted)
Procedure, shortened: as §1

[6] = target: Ba/F3-FGFR4-transfected cells (Homo sapiens, UniProt P22455); experiment: Ba/F3-FGFR4 cellular proliferation assay, Alamar Blue; format: cell-based
Procedure, shortened: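 Step one: compound dilutions in DMSO are sprayed into wells. Step two: transfected Ba/F3-FGFR4 cells are added at 20000 per well and incubated 24 hours at 37° C. Step three: Alamar Blue is added for 4 hours and relative fluorescence is measured.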

T3 sequence (P35968 whole entry, change not shown): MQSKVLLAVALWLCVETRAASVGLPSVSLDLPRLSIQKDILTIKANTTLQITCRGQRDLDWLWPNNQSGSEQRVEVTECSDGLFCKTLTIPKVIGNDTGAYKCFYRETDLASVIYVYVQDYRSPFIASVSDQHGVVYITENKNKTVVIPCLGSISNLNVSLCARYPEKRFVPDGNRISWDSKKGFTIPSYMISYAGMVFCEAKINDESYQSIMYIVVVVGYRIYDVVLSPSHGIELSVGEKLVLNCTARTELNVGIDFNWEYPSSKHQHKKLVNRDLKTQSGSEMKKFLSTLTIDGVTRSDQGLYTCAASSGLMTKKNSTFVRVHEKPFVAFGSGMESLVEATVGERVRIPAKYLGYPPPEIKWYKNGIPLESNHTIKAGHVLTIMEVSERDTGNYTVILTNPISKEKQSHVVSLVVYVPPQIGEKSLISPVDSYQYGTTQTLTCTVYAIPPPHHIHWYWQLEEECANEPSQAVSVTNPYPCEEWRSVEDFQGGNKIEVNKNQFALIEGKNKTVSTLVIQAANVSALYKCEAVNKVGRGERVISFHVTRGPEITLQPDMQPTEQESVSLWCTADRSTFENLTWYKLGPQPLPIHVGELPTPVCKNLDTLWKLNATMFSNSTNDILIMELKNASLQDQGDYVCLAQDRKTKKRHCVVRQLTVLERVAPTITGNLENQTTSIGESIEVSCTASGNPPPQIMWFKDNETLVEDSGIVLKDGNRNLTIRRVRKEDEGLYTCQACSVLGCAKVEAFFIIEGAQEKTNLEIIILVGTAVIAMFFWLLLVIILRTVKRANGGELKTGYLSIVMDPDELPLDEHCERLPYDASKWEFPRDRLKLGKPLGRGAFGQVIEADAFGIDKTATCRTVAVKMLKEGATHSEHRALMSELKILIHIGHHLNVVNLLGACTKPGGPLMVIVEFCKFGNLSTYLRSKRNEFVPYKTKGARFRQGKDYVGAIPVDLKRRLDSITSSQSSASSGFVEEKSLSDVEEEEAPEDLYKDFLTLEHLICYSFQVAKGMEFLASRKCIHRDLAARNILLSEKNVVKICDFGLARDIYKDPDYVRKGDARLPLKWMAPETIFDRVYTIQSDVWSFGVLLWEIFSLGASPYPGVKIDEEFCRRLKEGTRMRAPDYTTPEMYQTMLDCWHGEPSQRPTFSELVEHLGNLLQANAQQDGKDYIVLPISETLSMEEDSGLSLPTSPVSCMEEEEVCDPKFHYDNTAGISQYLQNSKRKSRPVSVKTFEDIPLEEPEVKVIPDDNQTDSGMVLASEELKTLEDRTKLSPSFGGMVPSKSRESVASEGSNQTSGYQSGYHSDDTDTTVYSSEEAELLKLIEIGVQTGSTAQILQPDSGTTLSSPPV
T1 sequence (P11362 whole entry, change not shown): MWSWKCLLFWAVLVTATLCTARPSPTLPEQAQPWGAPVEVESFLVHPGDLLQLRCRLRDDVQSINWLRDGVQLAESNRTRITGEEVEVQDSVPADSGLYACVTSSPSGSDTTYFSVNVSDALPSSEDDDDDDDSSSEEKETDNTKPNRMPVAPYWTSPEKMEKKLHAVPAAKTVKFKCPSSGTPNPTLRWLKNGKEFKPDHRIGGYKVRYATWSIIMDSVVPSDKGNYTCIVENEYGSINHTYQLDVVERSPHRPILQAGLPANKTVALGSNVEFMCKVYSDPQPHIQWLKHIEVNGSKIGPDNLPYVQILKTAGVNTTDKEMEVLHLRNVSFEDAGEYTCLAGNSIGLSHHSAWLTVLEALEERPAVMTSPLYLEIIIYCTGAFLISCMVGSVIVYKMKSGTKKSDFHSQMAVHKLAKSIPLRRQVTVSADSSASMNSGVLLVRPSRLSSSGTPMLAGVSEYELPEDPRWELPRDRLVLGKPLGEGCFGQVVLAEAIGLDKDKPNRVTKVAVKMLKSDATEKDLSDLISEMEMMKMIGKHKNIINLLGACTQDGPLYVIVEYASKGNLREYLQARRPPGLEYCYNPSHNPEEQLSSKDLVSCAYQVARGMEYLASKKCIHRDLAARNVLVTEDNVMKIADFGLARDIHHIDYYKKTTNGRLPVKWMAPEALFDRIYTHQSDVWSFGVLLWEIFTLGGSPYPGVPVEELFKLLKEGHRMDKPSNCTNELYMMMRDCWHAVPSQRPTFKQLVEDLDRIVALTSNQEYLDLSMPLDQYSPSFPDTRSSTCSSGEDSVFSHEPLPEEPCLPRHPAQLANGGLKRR
FGFR1 (h), sequence (P11362 22-822): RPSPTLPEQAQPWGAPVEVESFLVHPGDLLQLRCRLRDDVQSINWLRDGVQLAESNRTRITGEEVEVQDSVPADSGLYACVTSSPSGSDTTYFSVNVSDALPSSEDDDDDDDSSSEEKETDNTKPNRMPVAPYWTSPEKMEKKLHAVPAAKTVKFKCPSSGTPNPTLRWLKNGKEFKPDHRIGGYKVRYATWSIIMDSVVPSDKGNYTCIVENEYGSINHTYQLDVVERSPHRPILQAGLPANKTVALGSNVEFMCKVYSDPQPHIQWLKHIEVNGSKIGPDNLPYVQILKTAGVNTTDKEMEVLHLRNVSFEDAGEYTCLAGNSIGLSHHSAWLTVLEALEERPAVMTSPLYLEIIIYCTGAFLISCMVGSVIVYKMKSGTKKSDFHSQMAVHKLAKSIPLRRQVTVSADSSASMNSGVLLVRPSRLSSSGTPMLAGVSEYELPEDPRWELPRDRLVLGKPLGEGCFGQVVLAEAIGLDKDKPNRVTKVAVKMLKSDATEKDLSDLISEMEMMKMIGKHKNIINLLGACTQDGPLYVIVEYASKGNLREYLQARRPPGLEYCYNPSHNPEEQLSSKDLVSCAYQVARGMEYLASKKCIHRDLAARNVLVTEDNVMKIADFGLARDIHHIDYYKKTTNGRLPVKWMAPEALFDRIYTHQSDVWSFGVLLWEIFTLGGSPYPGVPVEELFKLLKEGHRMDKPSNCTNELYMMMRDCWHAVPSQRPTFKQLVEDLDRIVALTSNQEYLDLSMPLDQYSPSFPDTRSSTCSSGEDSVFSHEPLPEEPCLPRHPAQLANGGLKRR
T2 sequence (P22607 whole entry, change not shown): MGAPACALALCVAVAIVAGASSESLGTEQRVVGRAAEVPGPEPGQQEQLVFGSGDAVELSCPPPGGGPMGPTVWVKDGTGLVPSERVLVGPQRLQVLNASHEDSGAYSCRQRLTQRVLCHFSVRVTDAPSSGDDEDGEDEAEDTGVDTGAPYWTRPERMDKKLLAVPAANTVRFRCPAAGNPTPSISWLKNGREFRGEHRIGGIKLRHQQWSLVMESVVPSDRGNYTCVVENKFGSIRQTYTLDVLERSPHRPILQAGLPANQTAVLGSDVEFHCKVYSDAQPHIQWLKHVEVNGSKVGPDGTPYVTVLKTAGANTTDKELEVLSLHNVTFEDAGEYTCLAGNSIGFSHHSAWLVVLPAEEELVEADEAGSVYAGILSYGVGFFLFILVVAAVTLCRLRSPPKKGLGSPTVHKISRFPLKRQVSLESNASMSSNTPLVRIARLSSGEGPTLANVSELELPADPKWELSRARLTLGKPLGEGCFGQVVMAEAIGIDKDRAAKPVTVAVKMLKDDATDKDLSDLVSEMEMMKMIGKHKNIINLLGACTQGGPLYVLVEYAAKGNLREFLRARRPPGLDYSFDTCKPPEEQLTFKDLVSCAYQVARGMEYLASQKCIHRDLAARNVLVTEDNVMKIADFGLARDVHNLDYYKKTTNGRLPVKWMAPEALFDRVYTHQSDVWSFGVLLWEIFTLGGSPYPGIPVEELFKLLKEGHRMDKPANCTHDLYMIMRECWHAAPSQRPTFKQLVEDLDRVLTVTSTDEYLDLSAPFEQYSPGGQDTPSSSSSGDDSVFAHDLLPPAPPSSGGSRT
FGFR2 (h), sequence (P21802 22-821): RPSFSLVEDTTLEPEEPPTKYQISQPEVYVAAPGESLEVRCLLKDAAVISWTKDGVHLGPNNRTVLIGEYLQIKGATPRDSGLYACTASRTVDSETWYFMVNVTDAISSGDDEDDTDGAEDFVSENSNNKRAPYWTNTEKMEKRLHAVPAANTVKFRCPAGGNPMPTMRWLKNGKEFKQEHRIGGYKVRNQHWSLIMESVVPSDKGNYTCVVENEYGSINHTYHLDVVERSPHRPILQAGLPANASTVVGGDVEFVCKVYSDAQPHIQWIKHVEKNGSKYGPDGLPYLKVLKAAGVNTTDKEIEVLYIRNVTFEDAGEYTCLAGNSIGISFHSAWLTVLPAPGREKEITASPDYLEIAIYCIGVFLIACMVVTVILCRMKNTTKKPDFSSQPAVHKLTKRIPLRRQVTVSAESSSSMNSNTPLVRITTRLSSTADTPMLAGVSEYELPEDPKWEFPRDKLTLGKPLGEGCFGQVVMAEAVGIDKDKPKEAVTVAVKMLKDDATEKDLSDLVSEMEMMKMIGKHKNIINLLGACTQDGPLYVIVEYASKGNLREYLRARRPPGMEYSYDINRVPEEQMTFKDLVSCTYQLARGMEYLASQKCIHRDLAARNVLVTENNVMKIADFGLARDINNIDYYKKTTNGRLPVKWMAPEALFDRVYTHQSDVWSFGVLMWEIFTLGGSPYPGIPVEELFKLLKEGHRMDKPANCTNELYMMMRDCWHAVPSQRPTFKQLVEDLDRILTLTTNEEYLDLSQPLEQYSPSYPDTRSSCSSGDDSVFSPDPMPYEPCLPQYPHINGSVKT

| SMILES | IC50 (FGFR1 (h)) | IC50 (FGFR2 (h)) | IC50 (FGFR3 (h)) | BAF3-FGFR1 (MIN IL3) pIC50 [1] | IC50 [2] | BAF3-FGFR3 (MIN IL3) pIC50 [3] | BAF3-KDR (MIN IL3) pIC50 [4] | IC50 [5] | BAF3-FGFR4 pIC50 [6] |
| --- | --- | --- | --- | --- | --- | --- | --- | --- | --- |
| COc1cc(/N=c2\ccc3ncc(-c4cnn(C)c4)nc3n2CCN)c(F)c(OC)c1 [Compound 167] | 1.86 nM | 2.19 nM | 2.09 nM | 6.74 | > 10000 nM | 6.72 | 5.63 | > 10000 nM | 6.31 |
| COc1cc(OC)c(F)c(N(CCNC(C)=O)c2ccc3ncc(-c4cnn(C)c4)nc3n2)c1 [Compound 242] | 1.17 nM | 2.95 nM | 1.86 nM | 7.35 | > 10000 nM | ~8.11 | 5.49 | > 10000 nM | 7.22 |
| COc1cc(OC)c(F)c(N(Cc2cc(C)no2)c2ccc3ncc(-c4cnn(C)c4)nc3n2)c1 [Compound 185] | 0.851 nM | 1.51 nM | 0.912 nM | 7.59 | > 10000 nM | 7.64 | 5.51 | > 10000 nM | 7.39 |
| COc1cc(OC)c(F)c(N(CCN2CCCC2=O)c2ccc3ncc(-c4cnn(C)c4)nc3n2)c1 [Compound 157] | 10.5 nM | 6.31 nM | 5.62 nM | 6.17 | > 10000 nM | ~6.66 | 5.30 | > 10000 nM | 6.08 |
| COc1cc(/N=c2\ccc3ncc(-c4cnn(C)c4)nc3n2CC2CCCOC2)cc(OC)c1 (stereo not drawn) [Compound 165] | 1.15 nM | 2.4 nM | 1.12 nM | 7.38 | > 10000 nM | 7.32 | 6.30 | > 10000 nM | 7.13 |
| COc1cc(OC)c(F)c(N(CC(=O)c2cnn(C)c2)c2ccc3ncc(-c4cnn(C)c4)nc3n2)c1 [Compound 225] | 6.61 nM | ~7.08 nM | 7.76 nM | 6.41 | > 10000 nM | 6.29 | 5.17 | > 10000 nM | 5.96 |
| COc1cc(OC)c(F)c(N(Cc2ncc[nH]2)c2ccc3ncc(-c4ccccc4)nc3n2)c1 [Compound 200] | 0.537 nM | 1.7 nM | 1.45 nM | 8.37 | > 10000 nM | ~8.13 | 5.99 | > 10000 nM | 7.33 |
| COc1cc(/N=c2\ccc3ncc(-c4cnn(CC(C)(C)O)c4)nc3n2CC(C)(C)O)c(F)c(OC)c1 (single isomer, unassigned) [Compound 207] | 0.813 nM | 2.51 nM | 1.17 nM | 7.45 | > 10000 nM | ~7.57 | 6.11 | > 10000 nM | 6.69 |
| COc1cc(/N=c2\ccc3ncc(-c4cnn(C)c4)nc3n2CCN2CCOCC2)c(F)c(OC)c1 [Compound 148] | 1.7 nM | 1.91 nM | 1.26 nM | 7.58 | > 10000 nM | 7.21 | 6.26 | > 10000 nM | 7.21 |
| COc1cc(OC)cc(N(Cc2ncc[nH]2)c2ccc3ncc(-c4cn[nH]c4)nc3n2)c1 [Compound 141] | 0.603 nM | 0.933 nM | 0.457 nM | 8.27 | > 10000 nM | ~8.13 | 5.87 | > 10000 nM | 7.40 |
| Cn1cc(-c2cnc3ccc(N(Cc4ncc[nH]4)c4c(F)c(F)cc(F)c4F)nc3n2)cn1 [Compound 175] | 4.07 nM | 1.91 nM | 2 nM | 6.87 | > 10000 nM | 6.86 | <5 | > 10000 nM | 6.75 |
| COc1cc(OC)cc(N(Cc2nnco2)c2ccc3ncc(-c4cnn(C)c4)nc3n2)c1 [Compound 217] | 7.94 nM | 5.89 nM | 3.89 nM | 6.59 | > 10000 nM | ~6.68 | 5.18 | > 10000 nM | 6.03 |
| COc1cc(OC)c(F)c(N(CC2CCOC2)c2ccc3ncc(-c4cnn(C)c4)nc3n2)c1 (single isomer, unassigned) [Compound 170] | 2.34 nM | 2.14 nM | 2.19 nM | 6.92 | > 10000 nM | 6.78 | 5.56 | > 10000 nM | 6.49 |
| COc1cc(OC)cc(N(Cc2ncc[nH]2)c2ccc3ncc(-c4cnn(C5CCNCC5)c4)nc3n2)c1 [Compound 227] | 0.562 nM | 1.45 nM | 0.891 nM | 7.73 | > 10000 nM | 7.63 | 5.79 | > 10000 nM | 6.91 |
